What all share (type): cell-based
The test system of experiment [1] is Escherichia coli (10536 strain). Briefly: Antimicrobial efficacy, 15 seconds contact suspension test with plate count (Examples 1 and 3). To be noted: for MBC (minimum biocidal concentration): Example 1 medium, lowest concentration giving complete kill after 15 seconds, upper boundary. The protocol:
The efficacies of antimicrobial agents can be usefully compared by determining the Minimum Biocidal Concentration (MBC). The MBC is defined as the lowest absolute concentration of the particular active that provides complete kill (zero bacterial growth).
Antimicrobial efficacy is tested against a representative pathogenic bacterial organism, Gram negative Escherichia coli. Concentrations of actives are expressed in terms of the percentage weight/volume (% w/v) throughout Example 1.
An overnight culture of Escherichia coli (10536 strain) was prepared in 50 ml total volume of TSB broth, grown for ca. 18 hrs at 37° C. and shaken at 150 rpm. 1 ml of this overnight E. coli culture was transferred to 50 ml of fresh TSB broth and incubated at 37° C. at 150 rpm for ca. 4 hours. This culture was separated into equal volumes and centrifuged at 4000 rpm for 15 minutes, washed with sterile saline (0.85% NaCl), centrifuged once more and re-suspended in saline to give a final concentration of 0.8 OD620 equivalent to about 10^8 cells per milliliter for this particular organism. Here, OD620 indicates the absorbance of a sample in a cuvette of 1.0 cm path length at a wavelength of 620 nm. This bacterial stock was used for assaying against antimicrobial actives (in triplicate).
The following assay describes the testing of 8 materials using 6 dilutions across half of a 96-well micro titre plate (MTP). Using this approach it is possible to assay 16 actives (without replicates) with one full dilution plate, replicating this set up in two halves of the plate columns, 1-6 and 7-12.
1M solutions of the test actives were prepared in dimethylsulphoxide (DMSO).
Aliquots (270 μl) of the materials at 1.11 times the final concentration were dispensed into the wells of the MTP along one column (A1-H1). This MTP was labelled as the “Screening plate”.
In another MTP, labelled as the “Dilution plate”, 270 μl of D/E neutralising solution from DIFCO Composition was added to column 1. The composition of the neutralising solution was as follows: pancreatic digest of casein, 5.0 g/L; Yeast Extract, 2.5 g/L; Dextrose, 10 g/L, sodium thioglycollate, 1.0 g/L, sodium thiosulphate, 6.0 g/L; sodium bisulphite, 2.5 g/L; Polysorbate 80, 5.0 g/L; lecithin 7.0 g/L; bromocresol purple, 0.02 g/L with a pH in the range 7.6±0.2.
270 μl of tryptone diluent solution was added to all the remaining wells of the Dilution MTP (columns 2-6). […]

Experiment [2] relates to Escherichia coli (E. coli—ATCC #10536). Kind of experiment: High resolution MBC synergy assay, microtiter plate, phosphate buffer containing 35% dipropylene glycol (Example 2). To be noted: for ΣFBC: for the Ca/Cb pair of the same table line; for MBC of component alone (MBCA, MBCB): complete kill in 15 seconds, 35% DPG phosphate buffer. The procedure:
The materials were sourced in the same way as for Example 1. Synergy tests were conducted using standard microtiter plate assays with phosphate buffer containing 35% dipropylene glycol (DPG). […] The MBC plate was inoculated one column at a time with the test microorganism. An aliquot of the inoculated well was transferred at 15 seconds to a plate containing a neutralizing agent (D/E Neutralizing Broth), mixed and held for 5 minutes before being transferred to a growth plate containing trypticase soy broth (TSB). The TSB plate was incubated at 37° C. and read for the presence/absence of growth at 24 hours. […] This microorganism is representative of natural contaminants in many consumer and industrial applications.

Experiment [3] shares this test system. Briefly: Automated assessment of efficacy in surfactant base, DeltaOD in D/E quench (Example 4). The note with it: for MBC: in 2.85% sodium cocoyl glycinate + 1.85% sodium lauroamphoacetate solution at pH 10; for 15 second bactericidal efficacy in combination with thymol: in combination with thymol at concentrations lower than their MBC, same surfactant formulation, all 4 or 3 replicates, respectively. The protocol: In these examples, the efficacy of combinations of thymol and propen-2-yl-methyl-cyclohexanols of the invention were tested in a surfactant cleansing formulation comprising 2.85% sodium cocoyl glycinate and 1.85% sodium lauroamphoacetate. This corresponds to a 50% in use dilution with water of a typical neat formulation containing 5.7% cocoyl glycinate and 3.7% % sodium lauroamphoacetate during hand washing. Solutions were prepared such that the concentrations of the surfactant components and test actives were 1.1 times the final desired concentration in order to allow for dilution with the bacterial inoculum in the test. The solutions were manually adjusted to pH 10.0 by dropwise addition of sodium hydroxide solution, as measured with a pH meter at ambient temperature. Solutions of the thymol and/or propen-2-yl-methyl-cyclohexanols of the invention were prepared at a maximum of 24 hours before testing. The same thymol and propen-2-yl-methyl-cyclohexanols were tested as in Example 1.
The efficacy of the combinations of the present invention was determined against the same bacterium as in Example 1, Escherichia coli (E. coli—ATCC #10536), at a concentration of approximately 1×10^8 bacteria per mL.
Tests were conducted using standard microtiter plate assays using an automated liquid handling system. 270 μl of the surfactant test solution was pipetted into each well of the microtitre plate (Nunc F Gamma Irradiated 96F untreated microtitre plates of clear polystyrene) and 30 μl of the bacterial suspension was then added. After exactly 15 seconds of bacterial exposure, a 30 μl volume of bacterial cells was withdrawn and transferred to 270 μl of D/E quench solution. After 5 minutes in the D/E quench, the optical density (OD) was measured for each plate in turn at two specific wavelengths (450 nm and 590 nm). These provide a dual check of antimicrobial activity, as the OD450 reading is specific for the yellow colour of D/E quench when bacterial growth is observed, whereas OD590 is specific for the initial purple colour of the D/E quench which is retained if no bacterial growth is observed. […] Delta OD values were calculated by subtracting […] at time=16 hours. […] To identify antibacterially efficacious systems (those preventing appreciable bacterial growth after incubation), the following threshold changes in OD readings have been adopted: if (1). OD450 increases by less than 0.2 absorbance unit (AU) on incubation and (2). […] The number of replicate wells showing either bacterial growth or no growth is also readily assessed by eye by following the colour change. […]
In each case, binary mixtures were assessed in the weight to weight ratio of thymol to propen-2-yl-methyl-cyclohexanols of 1:2.5.

Bounds are passed on as bounds.

For `Cc1ccc(C(C)C)c(O)c1` [thymol, 2-isopropyl-5-methylphenol, reference compound], the “reduction of thymol concentration required for complete kill” value in experiment [1] (combination with […] w/v 2-methyl-5-(propen-2-yl)-cyclohexanol versus thymol in isolation) came to 4 fold. Also, the ΣFBC in experiment [2] (Table 7) and in experiment [2] (Table 8) was 1.00 throughout. For the same compound, the “MBC of component alone (MBCA, MBCB)” value in experiment [2] (Table 7 series) came to 0.2 weight %.
Turning to `C=C(C)C1CCC(C)C(O)C1` (stereo not drawn) [2-methyl-5-(propen-2-yl)-cyclohexanol], in experiment [3], the MBC is recorded as over 0.5 % w/v and the “15 second bactericidal efficacy in combination with thymol” value was “complete kill”. For the same compound, in experiment [1], the “MBC (minimum biocidal concentration)” value is listed as 0.3 % w/v. Also, the ΣFBC in experiment [2] (Table 7) stood at 1.00. For the same compound, the “MBC of component alone (MBCA, MBCB)” value in experiment [2] (Table 7 series) is reported as 0.5 weight %.
For `C=C(C)[C@@H]1CC[C@@H](C)[C@@H](O)C1` [(1S,2R,5R)-2-methyl-5-(1-methylethenyl)-cyclohexanol], the MBC in experiment [1] (Example 3, protocol of Example 1) worked out at 0.3 % w/v.
For the compound `C=C(C)[C@@H]1CC[C@@H](C)C[C@H]1O` [5-methyl-2-(propen-2-yl)-cyclohexanol, (1R,2S,5R)-5-methyl-2-(propen-2-yl)-cyclohexanol], in experiment [3], the MBC is over 0.5 % w/v and the “15 second bactericidal efficacy in combination with thymol” value is listed as “complete kill”. Also, the “MBC (minimum biocidal concentration)” value in experiment [1] is listed as 0.3 % w/v. Also, the ΣFBC in experiment [2] (Table 8) is 1.00. Moreover, the “MBC of component alone (MBCA, MBCB)” value in experiment [2] (Table 8 series) stood at 0.5 weight %.

Source of the values: US9339477B2, “Antimicrobial composition” (Rohm and Haas Company, priority 2011, dated 2016).
